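1) Cells in 96-well plates. 2) Compound, 48 h, 5 concentrations. 3) Linear interpolation between surrounding doses. 4) Unreached endpoint = highest concentration. GI50 is the concentration that inhibits growth by half. TGI: total growth inhibition.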
How the values were obtained:
Assay in all cases: NCI-60 cell line screen, 48 h
786-0 renal = test system: 786-0 renal
A498 renal = test system: A498 renal
A549 NSCLC = test system: A549 NSCLC
ACHN renal = test system: ACHN renal
BT-549 breast = test system: BT-549 breast
CAKI-1 renal = test system: CAKI-1 renal
CCRF-CEM leukemia = test system: CCRF-CEM leukemia
COLO 205 colon = test system: COLO 205 colon
DU-145 prostate = test system: DU-145 prostate
HCC-2998 colon = test system: HCC-2998 colon
HCT-116 colon = test system: HCT-116 colon
HCT-15 colon = test system: HCT-15 colon
HL-60(TB) leukemia = test system: HL-60(TB) leukemia
HOP-62 NSCLC = test system: HOP-62 NSCLC
HOP-92 NSCLC = test system: HOP-92 NSCLC
HS 578T breast = test system: HS 578T breast
HT29 colon = test system: HT29 colon
IGROV1 ovarian = test system: IGROV1 ovarian
K-562 leukemia = test system: K-562 leukemia
KM12 colon = test system: KM12 colon
LOX IMVI melanoma = test system: LOX IMVI melanoma
M14 melanoma = test system: M14 melanoma
MALME-3M melanoma = test system: MALME-3M melanoma
MCF7 breast = test system: MCF7 breast
MDA-MB-231 breast = test system: MDA-MB-231 breast
MDA-MB-435 = test system: MDA-MB-435
MOLT-4 leukemia = test system: MOLT-4 leukemia
NCI-H226 lung = test system: NCI-H226 lung
NCI-H23 lung = test system: NCI-H23 lung
NCI-H460 lung = test system: NCI-H460 lung
NCI-H522 lung = test system: NCI-H522 lung
NCI/ADR-RES ovarian = test system: NCI/ADR-RES ovarian
OVCAR-3 ovarian = test system: OVCAR-3 ovarian
OVCAR-5 ovarian = test system: OVCAR-5 ovarian
OVCAR-8 ovarian = test system: OVCAR-8 ovarian
PC-3 prostate = test system: PC-3 prostate
RXF 393 renal = test system: RXF 393 renal
SF-268 CNS = test system: SF-268 CNS
SF-295 CNS = test system: SF-295 CNS
SF-539 CNS = test system: SF-539 CNS
SK-MEL-2 melanoma = test system: SK-MEL-2 melanoma
SK-MEL-28 melanoma = test system: SK-MEL-28 melanoma
SK-MEL-5 melanoma = test system: SK-MEL-5 melanoma
SK-OV-3 ovarian = test system: SK-OV-3 ovarian
SN12C renal = test system: SN12C renal
SNB-19 CNS = test system: SNB-19 CNS
SNB-75 CNS = test system: SNB-75 CNS
SR leukemia = test system: SR leukemia
SW-620 colon = test system: SW-620 colon
T-47D breast = test system: T-47D breast
TK-10 renal = test system: TK-10 renal
U251 CNS = test system: U251 CNS
UACC-257 melanoma = test system: UACC-257 melanoma
UACC-62 melanoma = test system: UACC-62 melanoma
UO-31 renal = test system: UO-31 renal
EKVX NSCLC = test system: EKVX NSCLC
OVCAR-4 ovarian = test system: OVCAR-4 ovarian
RPMI-8226 leukemia = test system: RPMI-8226 leukemia

## CCC(=O)Oc1cc(/C=C/C(=O)O[C@H]2C[C@H]3CN4CCc5c([nH]c6cc(OC)ccc56)[C@@H]4C[C@@H]3[C@@H](C(=O)OC)[C@@H]2OC)ccc1OC
786-0 renal
  GI50: 7.26 µM
  TGI: > 100 µM
A498 renal
  GI50: 1.94 µM
  TGI: 9.9 µM
A549 NSCLC
  GI50: 21.6 µM
  TGI: > 100 µM
ACHN renal
  GI50: 5.34 µM
  TGI: > 100 µM
BT-549 breast
  GI50: 7.53 µM
  TGI: 62.4 µM
CAKI-1 renal
  GI50: 3.22 µM
  TGI: > 100 µM
CCRF-CEM leukemia
  GI50: 3.75 µM
  TGI: > 100 µM
COLO 205 colon
  GI50: 4.57 µM
  TGI: 17.7 µM
DU-145 prostate
  GI50: 18 µM
  TGI: > 100 µM
HCC-2998 colon
  GI50: 47.1 µM
  TGI: > 100 µM
HCT-116 colon
  GI50: 9.11 µM
  TGI: 78.9 µM
HCT-15 colon
  GI50: 5.7 µM
  TGI: 23.8 µM
HL-60(TB) leukemia
  GI50: 3.7 µM
  TGI: 26.9 µM
HOP-62 NSCLC
  GI50: 25.2 µM
  TGI: > 100 µM
HOP-92 NSCLC
  GI50: 1.58 µM
  TGI: 11.5 µM
HS 578T breast
  GI50: 5.3 µM
  TGI: > 100 µM
HT29 colon
  GI50: 3.37 µM
  TGI: 11.9 µM
IGROV1 ovarian
  GI50: 14.1 µM
  TGI: 75.8 µM
K-562 leukemia
  GI50: 4.06 µM
  TGI: > 100 µM
KM12 colon
  GI50: 18.7 µM
  TGI: > 100 µM
LOX IMVI melanoma
  GI50: 13.1 µM
  TGI: 55.1 µM
M14 melanoma
  GI50: 13.1 µM
  TGI: > 100 µM
MALME-3M melanoma
  GI50: 6.75 µM
  TGI: 29 µM
MCF7 breast
  GI50: 5.16 µM
  TGI: 24.3 µM
MDA-MB-231 breast
  GI50: 5 µM
  TGI: 28.4 µM
MDA-MB-435
  GI50: 12 µM
  TGI: 29.2 µM
MOLT-4 leukemia
  GI50: 3.87 µM
  TGI: > 100 µM
NCI-H226 lung
  GI50: 11.8 µM
  TGI: > 100 µM
NCI-H23 lung
  GI50: 20.5 µM
  TGI: > 100 µM
NCI-H460 lung
  GI50: 28.6 µM
  TGI: > 100 µM
NCI-H522 lung
  GI50: 16.2 µM
  TGI: 33.6 µM
NCI/ADR-RES ovarian
  GI50: 20.5 µM
  TGI: > 100 µM
OVCAR-3 ovarian
  GI50: 7.3 µM
  TGI: 67.5 µM
OVCAR-5 ovarian
  GI50: 40.4 µM
  TGI: > 100 µM
OVCAR-8 ovarian
  GI50: 19.7 µM
  TGI: > 100 µM
PC-3 prostate
  GI50: 15 µM
  TGI: > 100 µM
RXF 393 renal
  GI50: 3.68 µM
  TGI: 17.4 µM
SF-268 CNS
  GI50: 14.1 µM
  TGI: > 100 µM
SF-295 CNS
  GI50: 31 µM
  TGI: > 100 µM
SF-539 CNS
  GI50: 12.3 µM
  TGI: 30.9 µM
SK-MEL-2 melanoma
  GI50: 17.6 µM
  TGI: 36.6 µM
SK-MEL-28 melanoma
  GI50: 13.6 µM
  TGI: 35.2 µM
SK-MEL-5 melanoma
  GI50: 13 µM
  TGI: 28.5 µM
SK-OV-3 ovarian
  GI50: 59 µM
  TGI: > 100 µM
SN12C renal
  GI50: 12 µM
  TGI: > 100 µM
SNB-19 CNS
  GI50: 22.4 µM
  TGI: > 100 µM
SNB-75 CNS
  GI50: 3.74 µM
  TGI: 26.8 µM
SR leukemia
  GI50: 2.27 µM
  TGI: > 100 µM
SW-620 colon
  GI50: 15.9 µM
  TGI: > 100 µM
T-47D breast
  GI50: 10.8 µM
  TGI: 41.2 µM
TK-10 renal
  GI50: 14 µM
  TGI: 45.1 µM
U251 CNS
  GI50: 9.67 µM
  TGI: 88.1 µM
UACC-257 melanoma
  GI50: 15 µM
  TGI: > 100 µM
UACC-62 melanoma
  GI50: 12.1 µM
  TGI: 29.5 µM
UO-31 renal
  GI50: 4.82 µM
  TGI: > 100 µM

## C[n+]1cn(-c2ccc([N+](=O)[O-])cn2)c2ccccc21
786-0 renal
  TGI: > 100 µM
A498 renal
  TGI: > 100 µM
A549 NSCLC
  TGI: > 100 µM
ACHN renal
  TGI: > 100 µM
BT-549 breast
  TGI: > 100 µM
CAKI-1 renal
  TGI: > 100 µM
CCRF-CEM leukemia
  TGI: > 100 µM
COLO 205 colon
  TGI: > 100 µM
DU-145 prostate
  TGI: > 100 µM
EKVX NSCLC
  TGI: > 100 µM
HCC-2998 colon
  TGI: > 100 µM
HCT-116 colon
  TGI: > 100 µM
HCT-15 colon
  TGI: > 100 µM
HL-60(TB) leukemia
  TGI: > 100 µM
HOP-62 NSCLC
  TGI: > 100 µM
HOP-92 NSCLC
  TGI: > 100 µM
HS 578T breast
  TGI: > 100 µM
HT29 colon
  TGI: > 100 µM
IGROV1 ovarian
  TGI: > 100 µM
K-562 leukemia
  TGI: > 100 µM
KM12 colon
  TGI: > 100 µM
LOX IMVI melanoma
  TGI: > 100 µM
M14 melanoma
  TGI: > 100 µM
MALME-3M melanoma
  TGI: > 100 µM
MCF7 breast
  TGI: > 100 µM
MDA-MB-231 breast
  TGI: > 100 µM
MDA-MB-435
  TGI: > 100 µM
MOLT-4 leukemia
  TGI: > 100 µM
NCI-H226 lung
  TGI: > 100 µM
NCI-H23 lung
  TGI: > 100 µM
NCI-H460 lung
  TGI: > 100 µM
NCI/ADR-RES ovarian
  TGI: > 100 µM
OVCAR-3 ovarian
  TGI: > 100 µM
OVCAR-4 ovarian
  TGI: > 100 µM
OVCAR-5 ovarian
  TGI: > 100 µM
OVCAR-8 ovarian
  TGI: > 100 µM
PC-3 prostate
  TGI: > 100 µM
RPMI-8226 leukemia
  TGI: > 100 µM
RXF 393 renal
  TGI: > 100 µM
SF-268 CNS
  TGI: > 100 µM
SF-295 CNS
  TGI: > 100 µM
SF-539 CNS
  TGI: > 100 µM
SK-MEL-2 melanoma
  TGI: > 100 µM
SK-MEL-28 melanoma
  TGI: > 100 µM
SK-MEL-5 melanoma
  TGI: > 100 µM
SK-OV-3 ovarian
  TGI: > 100 µM
SNB-19 CNS
  TGI: > 100 µM
SNB-75 CNS
  TGI: > 100 µM
SR leukemia
  TGI: > 100 µM
SW-620 colon
  TGI: > 100 µM
T-47D breast
  TGI: > 100 µM
TK-10 renal
  TGI: > 100 µM
U251 CNS
  TGI: > 100 µM
UACC-257 melanoma
  TGI: > 100 µM
UACC-62 melanoma
  TGI: > 100 µM
UO-31 renal
  TGI: > 100 µM
